Values of other authors, collected in patent US9511011B2, “TRPV1 inhibitory peptides and composition for skin-aging protection or wrinkle improvement comprising the same” (SNU R&DB FOUNDATION, priority 2012, dated 2016).

Target: T1, TRPV1 (Homo sapiens, UniProt Q8NER1)
T1 construct: Capsaicin stimulus increases intracellular Ca^2+ level in keratinocytes, which is suppressed by capsazepine; host or cells: keratinocytes (endogenous TRPV1)
Settings: keratinocytes

T1 sequence (Q8NER1 whole entry): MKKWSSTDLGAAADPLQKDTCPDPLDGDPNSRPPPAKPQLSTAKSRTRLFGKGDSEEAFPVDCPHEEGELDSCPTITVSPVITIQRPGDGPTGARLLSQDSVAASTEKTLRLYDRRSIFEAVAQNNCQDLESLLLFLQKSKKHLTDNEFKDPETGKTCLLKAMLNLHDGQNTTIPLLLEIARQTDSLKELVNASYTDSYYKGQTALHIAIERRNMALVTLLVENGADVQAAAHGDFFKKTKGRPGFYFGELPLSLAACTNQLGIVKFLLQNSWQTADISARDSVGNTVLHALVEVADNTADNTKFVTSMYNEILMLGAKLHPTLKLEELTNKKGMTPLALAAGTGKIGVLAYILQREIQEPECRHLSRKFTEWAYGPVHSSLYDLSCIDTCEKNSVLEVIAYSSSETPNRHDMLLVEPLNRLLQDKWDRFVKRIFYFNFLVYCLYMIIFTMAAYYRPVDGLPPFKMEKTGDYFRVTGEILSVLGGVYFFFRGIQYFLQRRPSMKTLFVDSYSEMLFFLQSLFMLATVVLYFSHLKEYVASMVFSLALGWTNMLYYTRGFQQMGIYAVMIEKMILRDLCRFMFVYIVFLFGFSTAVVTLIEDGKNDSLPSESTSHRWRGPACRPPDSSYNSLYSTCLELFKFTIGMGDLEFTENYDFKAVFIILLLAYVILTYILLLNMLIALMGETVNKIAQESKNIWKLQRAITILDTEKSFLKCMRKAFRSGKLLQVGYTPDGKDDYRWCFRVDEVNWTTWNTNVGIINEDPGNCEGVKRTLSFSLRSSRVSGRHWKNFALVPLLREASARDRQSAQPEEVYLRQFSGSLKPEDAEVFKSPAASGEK

Q: With `Oc1cc2c(cc1O)CN(C(=S)NCCc1ccc(Cl)cc1)CCC2` [capsazepine] as the compound, how does the “intracellular Ca2+ level increased by capsaicin stimulus” value read?
A: suppressed
